According to US4132738A, “Preparation of 15-deoxy-16-hydroxyprostaglandins” (Miles Laboratories, Inc., priority 1978, dated 1979):

Columns and labels:
Conditions in all cases: comparison in words
[1] = test system: blood pressure and heart rate in the anesthetized cat; assay: Effects on blood pressure and heart rate in the anesthetized cat; type: in vivo
Protocol: The acute effects of test compounds on blood pressure and heart rate were determined in cats of either sex anesthetized with a mixture of pentobarbital sodium (35 mg/kg, i.v.) and barbital sodium (100 mg/kg, i.v.). Cannulas were placed in the trachea to allow adequate spontaneous ventilation, in a femoral artery for blood pressure recording with a strain gage transducer, and in a saphenous vein for drug administration.
Heart rate was recorded by means of a cardiotachometer driven by the R wave of the electrocardiogram. After a period of 10 minutes of stable recordings of blood pressure and heart rate, the test compound was administered intravenously at doses increasing from 0.01 to 10.0 mcg/kg, spaced one log and injected at 10 minute intervals. All doses were injected in a volume of 0.1 ml/kg. Modifications of blood pressure and heart rate induced by the test compound were expressed both in absolute units (mmHg and beats/minute) and as percent of values recorded immediately before administration of each dose. Biphasic responses were tabulated in the order in which they occurred. […]
Activity of compounds in this test was judged only on the basis of the degree of hypotension observed. Thus, the ED50 mmHg (dose decreasing blood pressure by 50 mmHg) was calculated graphically, and the compound scored according to the following scale: […]

[2] = test system: rat stomach, rat colon, chick rectum, and rabbit aorta; assay: Cascade assay, all four tissues; type: cell-based
Protocol: (§1) The smooth muscle stimulant effects of the test compounds were determined simultaneously in four different tissues that are known to be reactive to naturally occurring prostaglandins. Segments of rat stomach fundus, rat colon, chick rectum and rabbit aortic strip were obtained as described by: Vane, J. R., Brit. J. Pharmacol., 12: 344 (1957); Regoli, D. and Vane, J. R., Brit. J. Pharmacol., 23: 351 (1964); Mann, M. and West, G. B., Brit. J. Pharmacol., 5: 173 (1950); and Furchgott, R. F. and Bhadrakom, R., J. Pharmacol. Exper. Ther., 108: 129 (1953). One end of each preparation was tied to the bottom of a 10 ml tissue chamber and the other to a force displacement transducer (Grass FT-03) for continuous tension recording. The stomach, colon, and rectum segments were stretched to an initial tension of 1 g, while the aortic strip was subjected to 4 g. All preparations were left undisturbed for 1 hour prior to ptesting. The chambers were equipped with an external jacket through which water, maintained at 40° C., was circulated. […]
(§2) Test compounds were diluted from stock solutions so as to administer quantities ranging from 0.0001 to 100,000 ng in a volume of 0.5 ml. […] Maximal increases in tension after each dose were measured and the results were used to plot dose-response curves. […]
(§3) Activity in each tissue was scored according to the following scale: […]

rat stomach = assay: Cascade assay, rat stomach fundus in vitro; type: cell-based
Protocol: as §1, §2, §3

rat colon = assay: Cascade assay, rat colon in vitro; type: cell-based
Protocol: as §1, §2, §3

Structure (SMILES) | Feline blood pressure and heart rate value, methyl ester versus carbinol [1] | Cascade values, methyl ester versus carbinol [2] | Cascade stomache value, methyl ester versus carbinol (rat stomach) | Cascade colon value, methyl ester versus carbinol (rat colon)
CCCCC(C)(O)C/C=C/[C@H]1[C@H](O)CC(=O)[C@@H]1CCCCCCC(=O)OC (stereo partly drawn) [TR 4704, Methyl 11α, 16RS-dihydroxy-16-methyl-9-oxoprost-13E-oate, reference compound] | significantly and undesirably higher | significantly and undesirably higher | – | –
CCCCC(O)C/C=C/[C@H]1[C@H](O)CC(=O)[C@@H]1CCCCCCC(=O)OC (stereo partly drawn) [TR 4705, Methyl 11α, 16RS-dihydroxy-9-oxoprost-13E-en-1-oate, reference compound] | – | – | higher | higher
